Molecules are shown by their SMILES.

The term ED50 denotes the midpoint of the dose-response relation.

A short description of data set [1]: Arterial pressure, respiration and responses to biogenic amines in narcotized cats. It is filed as in vivo. How it is done: The study of the preparation according to the present invention for arterial pressure, breathing and hemodynamic effects of norepinephrine, neoepinephrine, novoepinephrine, acetylcholine and histamine was carried out in experiments on cats with a mass of 2.8 to 4.0 kg narcotized by chlorase. There were then recorded the animals' arterial pressure, respiration and ECG on a physiograph produced by Narco Bio-Systems Co.

A short description of data set [2]: Variation of the arrhythmogenic dose of Strophanthin G in rabbits. It is filed as in vivo. On the procedure: The effect of the preparation according to the present invention on the variation of the arrhythmogenic dose of Strophanthin G was studied in experiments on rabbits of both sexes with a mass of […] administered with Strophanthin G at a dose of 60 μg/kg into the marginal auricular vein and, after every 5-10 minutes, at a dose of 5-10 μg/kg until the appearance of a stable ventricular extrasystole. In the test groups 20-30 minutes before administration of the glycoside a solution of 3-(2,2,2-trimethylhydrazinium)propionate was prophylactically administered intravenously. The ECG was recorded in II standard lead.
At a further increase of the dose to the preparation to the present invention, its protective effect was increased too.

Data set [3] is described as follows: Storage stability of pharmaceutical preparations. It is filed as physicochemical.
Data set [4] in a line: Clinical tests on patients with various kinds of pathology. The following applies: human, in vivo. An excerpt: The pharmaceutical preparation according to the present invention can be useful in the treatment of such diseases as heart insufficiency, valvular defects, myocarditises, cardiosclerosis, ischemic heart disease, rhythm disturbances of different genesis. […] The preparation according to the present invention has been tested in experiments on animals and in clinics on patients with various kinds of pathology.
The preparation has been studied on more than 65 patients suffering from various pathology of the cardio-vascular systems such as heart rhythm disturbances (arrhythmia) of different etiology, ischemic heart disease, stenocardia, and atherosclerosis.

The nature of data set [5]: Aconitine model of arrhythmia in white rats. It is filed as in vivo. How it is done: For the comparison of preparations, as the criterion of the range of therapeutic effect, there was used the ratio of the half-lethal dose to the half-effective dose (LD50 /ED50) which was referred to as the antiarrhythmic index. […] The comparative study of the antiarrhythmic activity of pharmaceutical preparations using an acotine model of arrhythmia was effected in experiments on white rats weighing 190-240 g. The test preparations were administered intraperitoneally 10-40 minutes before administration of aconitine.

Data set [6] relates to fruit flies. Nature of the data set: Mutagenous activity on fruit flies. It is filed as in vivo. Particulars: dihydrate.

As to `C[N+](C)(C)NCCC(=O)[O-]` [3-(2,2,2-trimethylhydrazinium)propionate], in data set [1] (0.5 to 2.0 mg/kg intravenous), the “Change in arterial pressure, pulse frequency and respiration” value is “did not result in any essential change in arterial pressure, pulse frequency and respiration”; the “Level of responses to biogenic amines” value was “did not change changed the level of responses to biogenic amines”. Besides, in data set [1] (15-25 mg/kg), the “Change in response to acetyl choline” value is 10-15%, the “Change in response to neoepinephrine” value is listed as 5-10%, the “Increase of the response to histamine” value is listed as 5-10% and the “Short-time reduction of arterial pressure” value is given as 5-20 mm Hg. Moreover, in data set [1] (15-25 mg/kg, some cases), the “Duration of increase of arterial pressure” value was in the range of 5 to 12 min and the “Increase of arterial pressure vs initial value” is recorded as 5-10 mm Hg. For the same compound, the “Blood pressure or response to biogenic amines” value in data set [1] (further increase of dose) is on record as “did not cause changes in blood pressure or response to the administration of biogenic amines”. For the same compound, in data set [2] (10 mg/kg intravenously, control 20 ± 10), the Duration of arrhythmia stood at 12 ± 6 min. Besides, in data set [2] (10 mg/kg intravenously, control 67 ± 9), the “Arrhythmogenic dose of Strophanthin” value amounted to 0.09 ± 0.015 mg/kg. In data set [2] (25 mg/kg intravenously), the “Arrhythmogenic dose of Strophanthin” value was determined as 0.1 ± 0.01 mg/kg and the Duration of arrhythmia stood at 8 ± 5 min. Besides, in data set [2] (50 mg/kg intravenously), the “Arrhythmogenic dose of Strophanthin” value stood at 0.106 ± 0.012 mg/kg and the Duration of arrhythmia turned out to be 15 ± 8 min. Further, the Stability in storage result in data set [3] (+5° C.) is “stable in storage at a temperature of +5 °C for at least two years”. Further, the “Stability of pharmaceutical forms for peroral administration” value in data set [3] (room temperature) is recorded as “stable for two years at room temperature”. In data set [4], the “Therapeutic effects in paroxysmal tachycardia, fibrillation, A-V block and paroxysms” value is “positive, though less pronounced, effects”; the “Therapeutic results in chronic decompensation (rheumatic valvular defects) and acute circulatory insufficiency (myocardial infarction)” value is “Especially pronounced therapeutic results”. In data set [5] (Rattus norvegicus, ip, read-out: ED50, aconitine arrhythmia in rats), the median effective dose (ED50) came to 12.5 ± 2.5 mg/kg. Also, the “Antiarrhythmic index LD50/ED50, aconitine arrhythmia in rats” value in data set [5] (rat, in vivo) is reported as 354. Besides, the Mutagenous activity result in data set [6] is reported as “does not have mutagenous activity”.

Source of the values: patent US4451485A, “Treatment of cardio-vascular diseases with 3-(2,2,2-trimethylhydrazinium) propionate dihydrate” (Institu Organicheskogo Sinteza Akademii Nauk Latviiskoi SSR, priority 1981, dated 1984).
